Data published in patent US4622338A, “Substituted glutaric acid lactones in the treatment of hyperlipidemia” (G. D. Searle & Co., priority 1985, dated 1986).

Target: T1, rat liver microsomal HMGCoA reductase (Rattus norvegicus, UniProt P51639)
T1 construct: rat liver microsomal HMGCoA reductase; from tissue; host or cells: rat liver microsomes
T1 sequence (P51639 1-887): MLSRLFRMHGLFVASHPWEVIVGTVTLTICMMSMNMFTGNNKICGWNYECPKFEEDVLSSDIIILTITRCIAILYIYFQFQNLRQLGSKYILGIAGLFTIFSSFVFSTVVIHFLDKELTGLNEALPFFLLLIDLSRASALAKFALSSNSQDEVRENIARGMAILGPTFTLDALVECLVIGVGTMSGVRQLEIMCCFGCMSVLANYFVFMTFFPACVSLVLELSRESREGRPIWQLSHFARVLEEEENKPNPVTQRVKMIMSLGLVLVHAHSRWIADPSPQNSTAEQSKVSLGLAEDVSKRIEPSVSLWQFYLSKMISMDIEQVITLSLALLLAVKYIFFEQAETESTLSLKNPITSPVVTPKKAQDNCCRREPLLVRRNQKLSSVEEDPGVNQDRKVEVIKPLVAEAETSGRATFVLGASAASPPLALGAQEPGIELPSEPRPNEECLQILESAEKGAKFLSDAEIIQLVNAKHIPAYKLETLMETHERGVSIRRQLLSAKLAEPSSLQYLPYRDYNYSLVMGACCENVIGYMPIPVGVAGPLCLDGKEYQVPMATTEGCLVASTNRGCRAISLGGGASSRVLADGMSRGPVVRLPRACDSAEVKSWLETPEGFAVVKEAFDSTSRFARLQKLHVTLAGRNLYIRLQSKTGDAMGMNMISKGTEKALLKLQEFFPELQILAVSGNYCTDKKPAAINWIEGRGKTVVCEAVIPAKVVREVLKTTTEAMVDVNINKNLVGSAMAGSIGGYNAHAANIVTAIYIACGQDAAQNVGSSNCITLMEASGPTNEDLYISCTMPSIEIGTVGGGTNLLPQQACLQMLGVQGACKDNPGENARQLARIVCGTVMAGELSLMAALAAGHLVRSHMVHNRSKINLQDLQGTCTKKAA
Test: in vitro inhibition of rat liver microsomal HMGCoA reductase
Format: biochemical
Conditions: read-out: % inhibition (HMG CoA reductase); for inhibition at 50 µM: at 5.0×10^-5 M
Protocol: The in vitro inhibitory activity of the present compounds is evaluated using rat liver microsomal HMGCoA reductase as described by Edwards, et al. J. Biol. Chem. 249, 2891 (1974). The IC50 is defined as the concentration required to inhibit the enzyme by 50% of control.
HMG derivaties are added to a preincubation mixture consisting of 0.1 M K PO4, PH7.2, 0.02 M glucose-6-PO4, 2.5 mM NADP, 0.7 units of glucose-6-PO4 dehydrogenase, 5 mM dithiothreitol, 50 mM mevalonic acid and approximately 50 μg of microsomal protein. Triplicate samples are preincubated for 15 min. at 37° C. in a volume of 1 ml. Incubation is started with 40 μM 14C-HMGCoA (0.1 ml) run for 15 min. at 37° C. and stopped with 5 N HCl (0.1 ml). Assay tubes are allowed to set for at least 30 min., then approximately 50,000 dpm of ^3 H-mevalonic acid are added to provide for extraction efficiency. Mevalonic acid is extracted with ether and the % ^14 C-HMGCoA incorporation determined for concurrent control and test reaction systems. Testing is done (first) with a range finding assay followed by a 4 or 5 point assay to find the IC50 value.

Compound	inhibition at 50 µM	inhibition at 75 µM (at 7.5×10^-5 M)
CCCCCCCCCCCCCC1CC(O)(CC(=O)O)CC(=O)O1 (stereo not drawn) [Example 1, 3-Carboxymethyl-3,5-Dihydroxyoctadecanoic Acid-1,5-Lactone]	52%	
CC(CCCCCCCCC1CC(O)(CC(=O)O)CC(=O)O1)c1ccccc1 (stereo not drawn) [Example 2, 3-Carboxymethyl-3,5-dihydroxy-14-phenylpentadecanoic acid 1,5-Lactone]	57%	
CC(CCCCCCCCC1CC(O)(CC(=O)O)CC(=O)O1)C1CCCCC1 (stereo not drawn) [Example 3, 3-Carboxymethyl-14-cyclohexyl-3,5-dihydroxypentadecanoic acid 1,5-lactone]		49%
